Data reported in patent US11725015B2, “Macrocyclic compound and uses thereof” (President and Fellows of Harvard College, priority 2017, dated 2023).

What was measured:
[1] = tested on: α-SMA-positive CAFs in the FaDu subcutaneous model; experiment: Effect on α-SMA-positive CAFs in the FaDu subcutaneous model in mice (Test Example 19); assay type: in vivo
Protocol: A human squamous cell carcinoma of the head and neck (SCCHN) cell line FaDu, which had been cultured in an RPMI-1640 medium containing 10% FBS, and penicillin-streptomycin (culture medium), was adjusted to a concentration of 5×10^7 cells/mL with culture medium to prepare a cell suspension. The cell suspension was inoculated in a volume of 100 μL into a subcutaneous part of a right flank of nude mice, 6 weeks of ages (CAnN.Cg-Foxnlnu/CrlCrlj, female, Charles River Laboratories Japan, Inc.). Ten days after cell inoculation, the mice were grouped such that averages of the tumor volumes were substantially equal among the groups. The experiment was conducted on groups each consisting of 5 mice. Each test compound was dissolved in DMSO and a solution was stored in the freezer before use. Immediately before the administration, the stock solution was diluted with saline. The test compound in saline was intravenously administered at 20 μg/kg, […]. Two days or 5 days after the single administration, tumor samples were collected and fixed with IHC Zinc Fixative (BD Pharmingen) at 4° C. for 24 hours. Paraffin-embedded tissues were sectioned (3 μm), mounted on positively charged slides, and air-dried. Sections were deparaffinized, conditioned and the antigens were retrieved using microwave with 1 mM EDTA at pH 6.0. Sections were blocked with 1% of BSA in TBS. Mouse anti-α-SMA monoclonal antibody conjugated with alkaline phosphatase (clone 1A4, Sigma) was applied at 5 μg/mL. Sections were incubated with the antibody for 2.5 hr. […] The area of α-SMA-positive region in the whole tumor was quantified by counting the α-SMA-positive objects using inform 2 software (PerkinElmer Inc.) Area of the tumor region was measured by assessing the hematoxylin-staining area using inform 2 software (PerkinElmer Inc.). […] A suppression rate of the α-SMA-positive area of the test compound-dosing group was calculated with the below formula: α-SMA ratio=α-SMA area of the test compound-dosing group/α-SMA area of the non-treat group

[2] = tested on: MES-SA (human uterine sarcoma); experiment: In vitro antiproliferative activity, MES-SA; assay type: cell-based; details: 72 hours
Protocol: The in vitro antiproliferative assays for Compound (1) were conducted using a small panel of cancer cell lines including human squamous cell carcinoma of the esophagus (OE21, TE-8), human adenocarcinoma of the esophagus (OE33), and human uterine sarcoma (MES-SA, MES-SA-Dx5-Rx1). All cell lines were cultured in RPMI-1640 medium containing 10% FBS, and penicillin-streptomycin (culture medium), in a 5% CO2 incubator (37° C.). To each well of a 96 well plate (Becton, Dickinson and Company, 353219), 75 μL of cell suspension adjusted to a concentration of 4×10^4 cells/mL with the culture medium was added, and the cells were incubated overnight in a 5% CO2 incubator (37° C.). On the next day, 25 μL of Compound (1) in three-fold dilution series suspended in the culture medium was added to each well, and the resultant was incubated for 72 hours in a 5% CO2 incubator (37° C.). Then, cell viability was determined by CellTiter-Glo® Luminescent Cell Viability Assay (Promega) with 2013 EnVision™ Multilabel Reader (Perkin-Elmer, Wellesley, Mass.). Value of the wells containing cells without adding the test compounds was defined as 100% and the value of the wells containing no cells was defined as 0%. […] The P-gp susceptibility was calculated as the ratio of the IC50 value in MES-SA-Dx5-Rx1 cells, which overexpress P-gp, to the IC50 value in MES-SA cells.

[3] = tested on: HSC-2-Luc orthotopic transplantation (tongue); experiment: HSC-2 orthotopic transplantation mouse model; assay type: in vivo, mice
EDA-fibronectin = experiment: Effect on EDA-fibronectin in the FaDu subcutaneous model in mice; assay type: in vivo; details: Compound (1) 180 μg/kg + CTX 10 mg/kg on Day 1, five days after, compared with control tumors
Protocol: A human squamous cell carcinoma of the head and neck (SCCHN) cell line FaDu, which had been cultured in an RPMI-1640 medium containing 10% FBS, and penicillin-streptomycin (culture medium), was adjusted to a concentration of 5×10^7 cells/mL with culture medium to prepare a cell suspension. The cell suspension was inoculated in a volume of 100 μL into a subcutaneous part of a right flank of nude mice, 6 weeks of ages (CAnN.Cg-Foxnlnu/CrlCrlj, female, Charles River Laboratories Japan, Inc.). Ten days after cell inoculation, the mice were grouped such that averages of the tumor volumes were substantially equal among the groups. The experiment was conducted on groups each consisting of 5 mice. Compound (1) was dissolved in DMSO and a solution was stored in the freezer before use. […] Five days after the single administration, tumor samples were collected and fixed with IHC Zinc Fixative (BD Pharmingen) at 4° C. for 24 hr. Paraffin-embedded tissues were sectioned (3 μm), mounted on positively charged slides, and air-dried. Sections were deparaffinized, conditioned and the antigens were retrieved using microwave with 1 mM EDTA at pH 6.0 for Tenascin-C. For EDA-fibronectin, the antigens retrieval procedure was not necessary. […]

Compound: C=C1C[C@@H]2CC[C@@]34C[C@H]5O[C@H]6[C@@H](O3)[C@H]3O[C@H](CC[C@@H]3O[C@H]6C5O4)CC(=O)O[C@@H]3[C@@H](C)[C@@H]4O[C@@H]5C[C@]6(C[C@@H]7O[C@]8(C[C@H](C)[C@@H]9O[C@H](CN)[C@H](O)C[C@@H]9O8)C[C@H](C)[C@@H]7O6)O[C@@H]5C[C@@H]4O[C@H]3C[C@H]3O[C@@H](CC[C@@H]1O2)C[C@@H](C)C3=C [Compound (1)]
- α-SMA positive area ([1]; single administration 180 μg/kg, Day 3): significantly reduced the α-SMA positive area
- α-SMA positive area ([1]; single administration 180 μg/kg, Day 6): significantly reduced the α-SMA positive area
- α-SMA positive area ([1]; single administration 60 m/kg, Day 3): significantly reduced the α-SMA positive area
- antiproliferative activity [2]: potent antiproliferative agent
- survived mice on Day 100 ([3]; Compound (1)+CTX combination group, n=16): 10
- bioluminescence signal ([3]; with cetuximab, after Day 14): clearly reduced the bioluminescence signal in all mice
- expression level of ED-A fibronectin (EDA-fibronectin): reduced
